Structures can show the parent of a compound that is named as a salt.
Tests used:
[1] = test system: EBC-1 cells; experiment: EBC-1 cell proliferation experiment (CellTiter-Glo); format: cell-based, human; details: 3 days
Procedure: MEM medium, fetal bovine serum, penicillin/streptomycin antibiotics were purchased from Wisent. EBC-1 cell line was purchased from Nanjing COBIO Bioscience Co., LTD. Envision multi-label analyzer (PerkinElmer).
EBC-1 cells were seeded in a white 96-well plate, […] cell suspension per well, which contained 3000 EBC-1 cells. The cell plate was placed in a carbon dioxide incubator for overnight culture.
The compound to be tested was diluted 5-fold to the eighth concentration with a discharge gun, i.e., from 2 mM to […], and double duplicate wells experiment was set. 78 μL of the medium was added to the middle plate, then 2 μL per well of gradient diluted compound was transferred to the corresponding position on the middle plate, then mixed well and 20 μL per well was transferred to the cell plate. The cell plate was cultured in a carbon dioxide incubator for 3 days. Another cell plate was prepared and the signal values were read on the day of dosing as […] to be used in the data analysis. 25 μL of Promega CellTiter-Glo was added to each well of this cell plate, and incubated at room temperature for 10 minutes to stabilize the luminescence signal. Readings were taken using a PerkinElmer Envision multi-label analyzer.
25 μL of Promega CellTiter-Glo reagent was added to each well of this cell plate, and incubated at room temperature for 10 minutes to stabilize the luminescence signal. Readings were taken using a PerkinElmer Envision multi-label analyzer.
Using the equation (Sample-Min)/(Max-Min)*100% to convert the original data to the inhibition rate, the IC50 value can be obtained by curve fitting with four parameters (obtained by “log(inhibitor) vs. response in GraphPad Prism—Variable slope mode).

[2] = molecular target: c-Met enzyme (Homo sapiens (Human), UniProt P08581); experiment: c-Met enzyme activity inhibition (Promega c-Met Kinase Enzyme System, ADP-Glo); format: biochemical; details: 10 μM ATP, 60 min, 30° C.
Sequence of c-Met enzyme (P08581 956-1390): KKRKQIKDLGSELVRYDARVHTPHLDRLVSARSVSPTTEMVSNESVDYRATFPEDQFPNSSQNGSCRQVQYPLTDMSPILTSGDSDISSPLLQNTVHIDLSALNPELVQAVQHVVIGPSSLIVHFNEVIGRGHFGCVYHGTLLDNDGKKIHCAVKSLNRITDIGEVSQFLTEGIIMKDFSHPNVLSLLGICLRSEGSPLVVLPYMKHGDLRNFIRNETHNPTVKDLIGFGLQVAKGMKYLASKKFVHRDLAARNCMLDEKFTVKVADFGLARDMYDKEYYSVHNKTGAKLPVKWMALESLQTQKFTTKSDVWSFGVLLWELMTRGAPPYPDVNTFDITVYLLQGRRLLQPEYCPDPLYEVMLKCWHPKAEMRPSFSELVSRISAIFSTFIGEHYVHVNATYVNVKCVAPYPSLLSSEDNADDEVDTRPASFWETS
Procedure: To detect the inhibitory effect of the compounds on c-Met enzyme activity.
The c-Met Kinase Enzyme System was purchased from Promega. Envision multi-label analyzer (PerkinElmer).
The kinase buffer in the kit was used to dilute the enzyme, substrate, ATP and inhibitor.
The compound to be tested was diluted 5-fold to the eighth concentration with a discharge gun, i.e., from 50 μM to […], with a final DMSO concentration of 5%, and double duplicate wells experiment was set. 1 μL of each concentration gradient of the inhibitor, 2 μL of c-Met enzyme (4 ng), 2 μL of a mixture of the substrate and ATP (10 μM ATP, 0.2 μg/μL poly E4Y1) were added to the microplate, and the final concentration gradient of the compound of 10 μM was diluted to 0.13 nM. The reaction system was placed at 30° C. and the reaction was carried out for 60 minutes. When the reaction was completed, 5 μL of ADP-Glo reagent was added to each well and the reaction was carried out at 30° C. for another 40 minutes, when the reaction was completed, 10 μL of kinase detection reagent was added to each well, then the reaction was carried out at 30° C. for still another 30 minutes, chemiluminescence was read by the PerkinElmer Envision multi-label analyzer with an integration time of 0.5 seconds.
Using the equation (Sample-Min)/(Max-Min)*100% to convert the original data to the inhibition rate, the IC50 value can be obtained by curve fitting with four parameters (obtained by log(inhibitor) vs. response in GraphPad Prism—Variable slope mode).

[3] = test system: human lung cancer EBC-1 xenograft tumor; experiment: In vivo drug efficacy, human lung cancer EBC-1 xenograft tumor in nude mice; design: species or system BALB/c nude mice; details: for Tumor volume: n = 6
Procedure: BALB/c nude mice, female, 6-8 weeks old, weighing about 18-20 grams, animals were raised in SPF-class animal rooms in IVC (independent air supply system, constant temperature and humidity) cages (3 per cage). All cages, bedding and water were disinfected before use. All animals had free access to standard certified commercial laboratory diets. A total of 36 mice purchased from Shanghai Lingchang Biotechnology Co., Ltd. were used for research. Each animal was inoculated with 0.1 mL (5×10^6 cells) of EBC-1 cells on the right back, when the average tumor volume reached 243 mm^3, the animals were randomly grouped and the administration was started. The test compound was orally administered daily, the dose of hydrochloride of compound 24 was 10 mg/kg, the two doses of hydrochloride of compound 25 were 10 mg/kg and 20 mg/kg, respectively, and the dose of hydrochloride of compound 29 was 10 mg/kg. The tumor diameter was measured with vernier calipers twice a week. The calculation formula of tumor volume was: V=0.5a×b^2, a and b represented the long diameter and short diameter of the tumor, respectively. The anti-tumor efficacy of the compound was evaluated by TGI (%) or the relative tumor proliferation rate T/C (%). Relative tumor proliferation rate T/C (%)=TRTV/CRTV×100% (TRTV: average RTV in the treatment group; CRTV: average RTV in the negative control group). The relative tumor volume (RTV) was calculated according to the results of tumor measurement, the calculation formula was RTV=Vt/V0, wherein V0 was the tumor volume measured at the time of the grouping administration (i.e. D0), Vt was the tumor volume at a certain measurement, and TRTV and CRTV were taken on the same day. TGI (%) reflected the tumor growth inhibition rate. TGI (%)=[(1−(average tumor volume of a certain treatment group after administration-average tumor volume of the treatment group at the beginning of administration))/(average tumor volume of the solvent control group after the administration-average tumor volume of the solvent control group at the beginning of the administration)]×100%. Statistical analysis was performed based on RTV data at the end of the experiment, and SPSS software was used for analysis.

SMILES | IC50 [2] [nM] | IC50 ([1]; Homo sapiens, EBC-1, 72 h) [nM] | other results
N#Cc1ccc2nc3n(Cc4cccc(-c5ncc(OCC6CCN(C7COC7)CC6)cn5)c4)c(=O)ccn3c2c1 [Hydrochloride of compound 26] | 3.12 | 16.2 | –
CCCN1CCC(COc2cnc(-c3cccc(Cn4c(=O)ccn5c6cc(C#N)ccc6nc45)c3)nc2)CC1 [Hydrochloride of compound 43] | – | 7.32 | –
CCN1CCC(COc2cnc(-c3ccc(F)c(Cn4c(=O)ccn5c6cc(C#N)ccc6nc45)c3)nc2)CC1 [Hydrochloride of compound 29] | 6.31 | 10.3 | Tumor volume ([3]; 10 mg/kg oral daily (stopped after 15 days), day 18, mean ± standard error): 218 ± 50 mm^3; Tumor volume ([3]; 10 mg/kg oral daily (stopped after 15 days), day 21, mean ± standard error): 243 ± 56 mm^3; Tumor volume ([3]; 10 mg/kg oral daily (stopped after 15 days), day 25, mean ± standard error): 337 ± 83 mm^3; Tumor volume ([3]; 10 mg/kg oral daily (stopped after 15 days), day 25, mean ± standard error, listed as hydrochloride of compound 29): 337 mm^3; Tumor volume ([3]; 10 mg/kg oral daily (stopped after 15 days), day 27, mean ± standard error): 412 ± 100 mm^3; TGI (tumor growth inhibition rate) ([3]; 10 mg/kg oral daily, 25th day): 94.8%; TRTV/CRTV (relative tumor proliferation rate T/C) ([3]; 10 mg/kg oral daily, 25th day): 16.2%; Tumor volume ([3]; 10 mg/kg oral daily, day 0, mean ± standard error): 243 ± 17 mm^3; Tumor volume ([3]; 10 mg/kg oral daily, day 4, mean ± standard error): 299 ± 13 mm^3; Tumor volume ([3]; 10 mg/kg oral daily, day 7, mean ± standard error): 318 ± 21 mm^3; Tumor volume ([3]; 10 mg/kg oral daily, day 11, mean ± standard error): 294 ± 27 mm^3; Tumor volume ([3]; 10 mg/kg oral daily, day 14, mean ± standard error): 205 ± 37 mm^3
CC(C)N1CCC(COc2cnc(-c3cccc(Cn4c(=O)ccn5c6cc(C#N)cnc6nc45)c3)nc2)CC1 [Hydrochloride of compound 33] | – | 899 | –
CN1CCC(COc2cnc(-c3cccc(Cn4c(=O)ccn5c6cc(C#N)cnc6nc45)c3)nc2)CC1 [Hydrochloride of compound 32] | – | 816 | –
COCCN1CCC(COc2cnc(-c3cccc(Cn4c(=O)ccn5c6cc(C#N)ccc6nc45)c3)nc2)CC1 [Hydrochloride of compound 35] | 11.6 | 5.8 | –
CN1CCN(C(=O)Oc2cnc(-c3cccc(Cn4c5c(ccc4=O)-c4cc(C#N)ccc4C5=O)c3)nc2)CC1 [Hydrochloride of compound 20] | 26 | – | –
CN1CCC(COc2cnc(-c3cccc(Cn4c(=O)ccc5c4nc4ccc(C#N)cn45)c3)nc2)CC1 [Hydrochloride of compound 23] | 6.46 | 16.8 | –
CN1CCC(COc2cnc(-c3cccc(Cn4c(=O)ccn5c6ccc(C#N)cc6nc45)c3)nc2)CC1 [Hydrochloride of compound 9] | 21.8 | 31.8 | –
CN1CCC(COc2cnc(-c3cccc(Cn4c5c(ccc4=O)-c4cc(F)ccc4C5=O)c3)nc2)CC1 [Formate of compound 3] | 16 | 32.8 | –
CN(C)CCN1CCC(COc2cnc(-c3cccc(Cn4c(=O)ccn5c6cc(C#N)ccc6nc45)c3)nc2)CC1 [Compound 31] | – | 493 | –
N#Cc1ccc2nc3n(Cc4cccc(-c5ncc(OCC6CCN(C7CCC7)CC6)cn5)c4)c(=O)ccn3c2c1 [Hydrochloride of compound 44] | – | – | IC50 [1]: 6.83 nM
CC(C)N1CC(COc2cnc(-c3cccc(Cn4c(=O)ccn5c6cc(C#N)ccc6nc45)c3)nc2)C1 [Hydrochloride of compound 46] | – | 12.2 | –
CN1CCC(COc2cnc(-c3cccc(Cn4c5c(ccc4=O)-c4cc(C#N)ccc4C5(F)F)c3)nc2)CC1 [Formate of compound 1] | 42 | 133 | –
N#Cc1ccc2nc3n(Cc4cccc(-c5ncc(OCC6CCN(C7CCC7)CC6)cn5)c4)c(=O)ccn3c2c1 [Hydrochloride of compound 45] | – | – | IC50 [1]: 19.3 nM
CN1CCC(COc2cnc(-c3cccc(Cn4c(=O)ccc5c4nn4ccc(C#N)cc54)c3)nc2)CC1 [Hydrochloride of compound 27] | 17.7 | 38 | –

More lines, main results first:

IC50 [2] [nM] | SMILES | IC50 ([1]; Homo sapiens, EBC-1, 72 h) [nM] | other results
3.26 | CN1CCC(COc2cnc(-c3cccc(Cn4c(=O)ccn5c6cc(C#N)ccc6nc45)c3)nc2)CC1 [Hydrochloride of compound 11] | 6.99 | –
24.9 | CN1CCC(COc2cnc(-c3cccc(Cn4c(=O)ccc5c6cc(C#N)ccc6sc54)c3)nc2)CC1 [Hydrochloride of compound 6] | 62.8 | –
42 | CCN1CCC(COc2cnc(-c3cccc(Cn4c(=O)c(F)cn5c6cc(C#N)ccc6nc45)c3)nc2)CC1 [Hydrochloride of compound 13] | 133 | –
13.4 | CC(C)N1CCC(COc2cnc(-c3cccc(Cn4c5c(ccc4=O)-c4cc(C#N)ccc4C5=O)c3)nc2)CC1 [Hydrochloride of compound 19] | 14.1 | –
10 | CN1CCC(COc2cnc(-c3cccc(Cn4c5c(ccc4=O)-c4cc(C#N)ccc4C5=O)c3)nc2)CC1 [Formate of compound 2] | 5.79 | –
131 | CN1CCC(COc2cnc(-c3cccc(Cn4c5c(ccc4=O)-c4cc(C#N)ccc4OC5)c3)nc2)CC1 [Formate of compound 5] | 585 | –
15.7 | CN1CCC(COc2cnc(-c3cccc(Cn4c(=O)ccn5c6cc(C#N)ccc6cc45)c3)nc2)CC1 [Hydrochloride of compound 10] | 31.6 | –
5.06 | CCN1CCC(COc2cnc(-c3cccc(Cn4c5c(ccc4=O)-c4cc(C#N)ccc4C5=O)c3)nc2)CC1 [Hydrochloride of compound 12] | 6.66 | –
167 | CN1CCC(COc2cnc(-c3cccc(Cn4c5c(ccc4=O)-c4cc(F)ccc4C5(F)F)c3)nc2)CC1 [Formate of compound 4] | – | –
45 | CN1CCC(COc2cnc(-c3cccc(Cn4c5c(cc(F)c4=O)-c4cc(C#N)ccc4C5(F)F)c3)nc2)CC1 [Hydrochloride of compound 16] | 135 | –
58 | CN1CC2(CC(Oc3cnc(-c4cccc(Cn5c(=O)ccn6c7cc(C#N)ccc7nc56)c4)nc3)C2)C1 [Hydrochloride of compound 28] | 66 | –
21.5 | CN1CCC(COc2cnc(-c3cccc(Cn4c(=O)c(F)cc5c6cc(C#N)ccc6sc54)c3)nc2)CC1 [Hydrochloride of compound 8] | 36 | –
15.2 | CS(=O)(=O)CCN1CCC(COc2cnc(-c3cccc(Cn4c(=O)ccn5c6cc(C#N)ccc6nc45)c3)nc2)CC1 [Hydrochloride of compound 42] | – | –
